Measured values taken from patent US11083725B2 (priority 2014, dated 2021).

Tested on: NHBE cells
Assay: Biolog metabolic array: substrate use by NHBE cells with or without CA09 infection
Format: cell-based, human
Conditions: for Substrate use, 590 nm absorbance normalized to zero hour, 1 hr: Biolog PMM2, 1 hr; for Substrate use, 590 nm absorbance normalized to zero hour, 5 hr: Biolog PMM2, 5 hr; for Substrate use, 590 nm absorbance normalized to zero hour, 7 hr: Biolog PMM2, 7 hr; for Substrate use, 590 nm absorbance normalized to zero hour, 0 hr: Biolog PMM2, 0 hr
[1] = Control (uninfected) NHBE cells
[2] = Virus (CA09, MOI 1) infected NHBE cells
[3] = Virus (CA09-infected, MOI 1) NHBE cells
[4] = Virus: CA09-infected NHBE cells, MOI 1, Biolog PMM2
[5] = Virus (CA09-infected NHBE cells, MOI 1)

## OC[C@@H](O)[C@H](O)[C@@H](O)CO [Xylitol]
[1]
  590 nm absorbance normalized to zero hour (substrate use), 1 hr: 1.02
  590 nm absorbance normalized to zero hour (substrate use), 2 hr: 1.53
  590 nm absorbance normalized to zero hour (substrate use), 3 hr: 1.57
  590 nm absorbance normalized to zero hour (substrate use), 4 hr: 1.01
  590 nm absorbance normalized to zero hour (substrate use), 6 hr: 0.40
  590 nm absorbance normalized to zero hour (substrate use), 8 hr: 1.49
  590 nm absorbance normalized to zero hour (substrate use), 9 hr: 1.02
  590 nm absorbance normalized to zero hour (substrate use), 10 hr: 0.97
  590 nm absorbance normalized to zero hour (substrate use), 11 hr: 0.97
  Substrate use, 590 nm absorbance normalized to zero hour, 1 hr: 1.02
  Substrate use, 590 nm absorbance normalized to zero hour, 5 hr: 1.51
  Substrate use, 590 nm absorbance normalized to zero hour, 7 hr: 1.01
[2]
  Substrate use, 590 nm absorbance normalized to zero hour, 1 hr: 1.69
  Substrate use, 590 nm absorbance normalized to zero hour, 5 hr: 3.95
  Substrate use, 590 nm absorbance normalized to zero hour, 7 hr: 4.50
[3]
  590 nm absorbance normalized to zero hour (substrate use), 1 hr: 1.69
  590 nm absorbance normalized to zero hour (substrate use), 2 hr: 2.39
  590 nm absorbance normalized to zero hour (substrate use), 3 hr: 3.14
  590 nm absorbance normalized to zero hour (substrate use), 4 hr: 3.34
  590 nm absorbance normalized to zero hour (substrate use), 6 hr: 4.25
  590 nm absorbance normalized to zero hour (substrate use), 8 hr: 4.55
  590 nm absorbance normalized to zero hour (substrate use), 9 hr: 5.13
  590 nm absorbance normalized to zero hour (substrate use), 10 hr: 4.85
  590 nm absorbance normalized to zero hour (substrate use), 11 hr: 5.48

## OC[C@H]1O[C@@H]2O[C@H]3[C@H](O)[C@@H](O)[C@@H](O[C@H]4[C@H](O)[C@@H](O)[C@@H](O[C@H]5[C@H](O)[C@@H](O)[C@@H](O[C@H]6[C@H](O)[C@@H](O)[C@@H](O[C@H]7[C@H](O)[C@@H](O)[C@@H](O[C@H]1[C@H](O)[C@H]2O)O[C@@H]7CO)O[C@@H]6CO)O[C@@H]5CO)O[C@@H]4CO)O[C@@H]3CO [a-Cyclo-dextrin]
[1]
  590 nm absorbance normalized to zero hour (substrate use), 0 hr: 1.00
  590 nm absorbance normalized to zero hour (substrate use), 1 hr: 1.89
  590 nm absorbance normalized to zero hour (substrate use), 2 hr: 2.66
  590 nm absorbance normalized to zero hour (substrate use), 3 hr: 3.24
  590 nm absorbance normalized to zero hour (substrate use), 4 hr: 3.50
  590 nm absorbance normalized to zero hour (substrate use), 6 hr: 4.31
  590 nm absorbance normalized to zero hour (substrate use), 8 hr: 5.25
  590 nm absorbance normalized to zero hour (substrate use), 9 hr: 5.99
  590 nm absorbance normalized to zero hour (substrate use), 10 hr: 6.37
  590 nm absorbance normalized to zero hour (substrate use), 11 hr: 5.86
  Substrate use, 590 nm absorbance normalized to zero hour, 0 hr: 1.00
  Substrate use, 590 nm absorbance normalized to zero hour, 1 hr: 1.89
  Substrate use, 590 nm absorbance normalized to zero hour, 5 hr: 4.31
  Substrate use, 590 nm absorbance normalized to zero hour, 7 hr: 4.96
[3]
  590 nm absorbance normalized to zero hour (substrate use), 0 hr: 1.00
  590 nm absorbance normalized to zero hour (substrate use), 1 hr: 1.86
  590 nm absorbance normalized to zero hour (substrate use), 2 hr: 2.62
  590 nm absorbance normalized to zero hour (substrate use), 3 hr: 2.99
  590 nm absorbance normalized to zero hour (substrate use), 4 hr: 3.18
  590 nm absorbance normalized to zero hour (substrate use), 5 hr: 3.75
  590 nm absorbance normalized to zero hour (substrate use), 6 hr: 4.06
  590 nm absorbance normalized to zero hour (substrate use), 7 hr: 4.29
  590 nm absorbance normalized to zero hour (substrate use), 8 hr: 4.56
  590 nm absorbance normalized to zero hour (substrate use), 9 hr: 4.96
  590 nm absorbance normalized to zero hour (substrate use), 10 hr: 5.19
  590 nm absorbance normalized to zero hour (substrate use), 11 hr: 4.09
[4]
  590 nm absorbance normalized to zero hour (substrate use), 0 hr: 1.00
  590 nm absorbance normalized to zero hour (substrate use), 1 hr: 1.86
  590 nm absorbance normalized to zero hour (substrate use), 2 hr: 2.62
  590 nm absorbance normalized to zero hour (substrate use), 3 hr: 2.99
  590 nm absorbance normalized to zero hour (substrate use), 4 hr: 3.18
  590 nm absorbance normalized to zero hour (substrate use), 5 hr: 3.75
  590 nm absorbance normalized to zero hour (substrate use), 6 hr: 4.06
  590 nm absorbance normalized to zero hour (substrate use), 7 hr: 4.29
  590 nm absorbance normalized to zero hour (substrate use), 8 hr: 4.56
  590 nm absorbance normalized to zero hour (substrate use), 9 hr: 4.96
  590 nm absorbance normalized to zero hour (substrate use), 10 hr: 5.19
  590 nm absorbance normalized to zero hour (substrate use), 11 hr: 4.09

## OC[C@H]1O[C@@H](O[C@H]2[C@H](O)[C@@H](O)[C@@H](O)O[C@@H]2CO)[C@H](O)[C@@H](O)[C@H]1O [a-D-Lactose]
[1]
  590 nm absorbance normalized to zero hour (substrate use), 0 hr: 1.00
  590 nm absorbance normalized to zero hour (substrate use), 1 hr: 0.44
  590 nm absorbance normalized to zero hour (substrate use), 2 hr: 0.58
  590 nm absorbance normalized to zero hour (substrate use), 3 hr: 0.65
  590 nm absorbance normalized to zero hour (substrate use), 4 hr: 0.69
  590 nm absorbance normalized to zero hour (substrate use), 6 hr: 0.63
  590 nm absorbance normalized to zero hour (substrate use), 8 hr: 0.94
  590 nm absorbance normalized to zero hour (substrate use), 9 hr: 1.01
  590 nm absorbance normalized to zero hour (substrate use), 10 hr: 1.02
  590 nm absorbance normalized to zero hour (substrate use), 11 hr: 0.92
  Substrate use, 590 nm absorbance normalized to zero hour, 0 hr: 1.00
  Substrate use, 590 nm absorbance normalized to zero hour, 1 hr: 0.44
  Substrate use, 590 nm absorbance normalized to zero hour, 5 hr: 0.82
  Substrate use, 590 nm absorbance normalized to zero hour, 7 hr: 0.88
[5]
  590 nm absorbance normalized to zero hour (substrate use), 0 hr: 1.00
  590 nm absorbance normalized to zero hour (substrate use), 1 hr: 0.17
  590 nm absorbance normalized to zero hour (substrate use), 2 hr: 0.22
  590 nm absorbance normalized to zero hour (substrate use), 3 hr: 0.26
  590 nm absorbance normalized to zero hour (substrate use), 4 hr: 0.28
  590 nm absorbance normalized to zero hour (substrate use), 5 hr: 0.33
  590 nm absorbance normalized to zero hour (substrate use), 6 hr: 0.35
  590 nm absorbance normalized to zero hour (substrate use), 7 hr: 0.37
  590 nm absorbance normalized to zero hour (substrate use), 8 hr: 0.39
  590 nm absorbance normalized to zero hour (substrate use), 9 hr: 0.42
  590 nm absorbance normalized to zero hour (substrate use), 10 hr: 0.41
  590 nm absorbance normalized to zero hour (substrate use), 11 hr: 0.39
[4]
  590 nm absorbance normalized to zero hour (substrate use), 0 hr: 1.00
  590 nm absorbance normalized to zero hour (substrate use), 1 hr: 0.17
  590 nm absorbance normalized to zero hour (substrate use), 2 hr: 0.22
  590 nm absorbance normalized to zero hour (substrate use), 3 hr: 0.26
  590 nm absorbance normalized to zero hour (substrate use), 4 hr: 0.28
  590 nm absorbance normalized to zero hour (substrate use), 5 hr: 0.33
  590 nm absorbance normalized to zero hour (substrate use), 6 hr: 0.35
  590 nm absorbance normalized to zero hour (substrate use), 7 hr: 0.37
  590 nm absorbance normalized to zero hour (substrate use), 8 hr: 0.39
  590 nm absorbance normalized to zero hour (substrate use), 9 hr: 0.42
  590 nm absorbance normalized to zero hour (substrate use), 10 hr: 0.41
  590 nm absorbance normalized to zero hour (substrate use), 11 hr: 0.39
